Like-named read-outs stand apart in the source and are kept apart here. No end group written: not given here. *: point of attachment. Biotin = O=C1N[C@H]2[C@H](CS[C@H]2CCCCC(=O)*)N1
Experiments:
[1] = test system: leukemia cells HL-60 and U937 cells; details: 24 h
Experimental: The effect of E5 polypeptide on the apoptosis of leukemia cells HL-60 and U937 cells was examined by FITC-Annexin V/PI (eBioscience, Australia) double-staining assay. HL-60 and U937 cells were harvested in logarithmic growth phase. The cell suspensions and E5 aqueous solutions at different concentrations were added to 24-well plates. After incubation for 24 h, the cells were collected and washed with PBS. FITC-Annexin V and PI were added after the cells were resuspended in a binding buffer (10 mM Hepes/NaOH, pH 7.4, 140 mM NaCl, 2.5 mM CaCl2). After incubating for 10 min at room temperature, 1.5×10^4 cells were analyzed by flow cytometer (Accuri C6, BD, USA).

HL-60 cells = details: CXCL12 200 ng/mL, 24 h
Experimental: (§1) HL-60 and U937 cells were harvested in logarithmic growth phase and suspended in RPMI-1640 medium without FBS. 200 μL of the suspension containing 20×10^4 cells and aqueous solutions of E5 at different concentrations were added to the upper chamber of a trans well chamber (PET microporous filter membrane with a diameter of […] was used for HL-60, and PET microporous filter membrane with a diameter of 5 μm was used for U937) so that the final concentration of the polypeptide molecule was 0.1 μM, 1.0 μM, and 10 μM respectively, and an aqueous solution was added for use as a blank control. 800 μL of the RPMI-1640 medium without FBS was added to the lower chamber, along with adding aqueous solutions of CXCL12 at concentrations of 200 ng/mL and 50 ng/mL respectively to induce HL-60 and U937 cells. The culture plates were incubated in an incubator under 37° C., 5% CO2 for 24 h. The trans well chambers were removed and the number of the migrated cells in the lower chamber was calculated.

U937 cells = details: CXCL12 50 ng/mL, 24 h
Experimental: as §1

[2] = test system: NOD/SCID mice transplanted with HL-60 cells; details: 30 mg/kg subcutaneous, twice a week from day 20 after transplantation
Experimental: The 5-week-old female NOD/SCID mice (purchased from the Animal Experimental Center of the Institute of Basic Medical Science, Chinese Academy of Medical Sciences) cultured in a special sterile environment were used. Prior to the experiment, animals should be acclimated to the laboratory environment for 1 week. 1×10^6 HL-60 cells were suspended in 100 μL ethylene diamine tetracetic acid sodium (EDTA)/PBS and injected intravenously into NOD/SCID mice subjected to sub-lethal irradiation (250 cGy). […] From day 20 after transplantation, the mice were injected with E5 (30 mg/kg, n=9), cyclophosphamide (CTX, 36 mg/kg, n=9), or sterile water (n=8) respectively twice a week to observe the state and weight changes of the mice, wherein E5 and sterile water were injected into mice by subcutaneous injection and cyclophosphamide was injected into mice by intraperitoneal injection.

## Biotin-GGRSFFLLRRIQGCRFRNTVDD [E5]
[1]; 50 μM
  apoptosis rate of leukemia cells: 10%
[1]; 80 μM
  apoptosis rate of leukemia cells: 22%
[1]; concentration below 20 μM
  effect on apoptosis of leukemia cells HL-60 and U937 cells: negligible
[1]; concentration higher than 20 μM
  apoptosis rate of leukemia cells: increased rapidly
HL-60 cells; 0.1 μM
  decrease of migration ability of HL-60 cells (longitudinal): 35.00%
HL-60 cells; 1.0 μM
  decrease of migration ability of HL-60 cells (longitudinal): 39.00%
HL-60 cells; 10 μM
  decrease of migration ability of HL-60 cells (longitudinal): 64.00%
U937 cells; 0.1 μM
  decrease of migration ability of U937 cells (longitudinal): 17.00%
U937 cells; 1.0 μM
  decrease of migration ability of U937 cells (longitudinal): 23.00%
U937 cells; 10 μM
  decrease of migration ability of U937 cells (longitudinal): 20.00%
[2]
  survival time of mice versus cyclophosphamide group and control group: longer survival time
  weight of mice versus cyclophosphamide group and control group: much higher

From patent US20170360897A1, “POLYPEPTIDE AND POLYPEPTIDE COMPLEX FOR SUPPRESSING TUMOR METASTASIS AND TREATING LEUKEMIA AS WELL AS PREPARATION METHOD THEREFOR AND APPLICATION THEREOF” (National Center for Nanoscience and Technology, China, priority 2014, published 2017)
